Reference: ChEMBL document CHEMBL5046256, “The discovery of potent small molecule cyclic urea activators of STING” (Eur J Med Chem, 2022)
Values belong to the molecule of their own block, whether it stands above or below them. The source made the active and inactive calls. No cut-off for these calls is given here.

Tests used:
[1] = tested on: HEK-293T; test: Agonist activity against human STING R232H variant transfected in HEK-293T cells co-expressing ISRE.ISG54 at 0.5 uM by luciferase reporter gene assay relative to control; assay type: cell-based
[2] = tested on: HEK-293T; test: Agonist activity against human STING R232H variant transfected in HEK-293T cells co-expressing ISRE.ISG54 at 1 uM by luciferase reporter gene assay relative to control; assay type: cell-based
[3] = tested on: HEK-293T; test: Agonist activity against human STING R232H variant transfected in HEK-293T cells co-expressing ISRE.ISG54 at 0.2 uM by luciferase reporter gene assay relative to control; assay type: cell-based; details: filed as agonist
[4] = Agonist activity against human STING R232H variant transfected in HEK-293T cells co-expressing ISRE.ISG54 by luciferase reporter gene assay; assay type: cell-based; details: Homo sapiens, HEK-293T
[5] = target: T1, Stimulator of interferon genes protein (Homo sapiens, UniProt Q86WV6); test: Agonist activity against human STING H232 variant transfected in HEK-293T cells co-expressing ISRE.ISG54 incubated for 18 hrs by luciferase reporter gene assay; assay type: cell-based
T1 sequence (Q86WV6 whole entry, looked up, stated change not applied): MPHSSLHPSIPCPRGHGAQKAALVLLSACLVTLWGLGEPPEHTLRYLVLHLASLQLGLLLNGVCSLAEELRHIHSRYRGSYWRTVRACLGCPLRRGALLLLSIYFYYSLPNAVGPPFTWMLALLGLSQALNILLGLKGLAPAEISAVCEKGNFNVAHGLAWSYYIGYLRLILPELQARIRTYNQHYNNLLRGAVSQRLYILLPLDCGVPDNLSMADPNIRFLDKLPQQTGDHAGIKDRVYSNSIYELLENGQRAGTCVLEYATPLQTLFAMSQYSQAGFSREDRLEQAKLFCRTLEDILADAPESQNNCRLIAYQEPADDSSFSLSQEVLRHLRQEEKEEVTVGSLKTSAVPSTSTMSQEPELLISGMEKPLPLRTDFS

[6] = target: T1, Stimulator of interferon genes protein; test: Agonist activity against human STING HAQ variant expressed in HEK-293T cells co-expressing ISRE.ISG54 incubated for 18 hrs by luciferase reporter gene assay; assay type: cell-based
[7] = target: T1, Stimulator of interferon genes protein; test: Agonist activity against human STING AQ variant transfected in HEK-293T cells co-expressing ISRE.ISG54 incubated for 18 hrs by luciferase reporter gene assay; assay type: cell-based
[8] = target: T1, Stimulator of interferon genes protein; test: Agonist activity against human STING Q variant expressed in HEK293T cells co-expressing ISRE.ISG54 incubated for 18 hrs by luciferase reporter gene assay; assay type: cell-based; details: hek-293t
[9] = target: T1, Stimulator of interferon genes protein; test: Agonist activity against human STING HAQ variant expressed in THP-1 cells co-expressing ISRE.ISG54 incubated for 18 hrs by luciferase reporter gene assay; assay type: cell-based
[10] = Agonist activity against cynomolgus monkey STING expressed in HEK-293T cells co-expressing co-expressing ISRE.ISG54 by luciferase reporter gene assay; assay type: cell-based; details: Macaca fascicularis
[11] = tested on: PBMC; test: Effect of compound on STING phosphorylation in cynomolgus monkey PBMC cells at 10 uM for 2 hrs by immunoblotting; assay type: functional, cell-based; details: Macaca fascicularis
[12] = tested on: PBMC; test: Effect of compound on IRF3 phosphorylation in cynomolgus monkey PBMC cells at 10 uM for 2 hrs by immunoblotting; assay type: functional, cell-based; details: Macaca fascicularis
[13] = tested on: Stimulator of interferon genes protein (Homo sapiens), Q86WV6 [UNDEFINED MUTATION]; test: Binding affinity to human STING R232 variant expressed in HEK-293T cells assessed as increase in thermal stability measured between 51 and 56 deg C at 10 uM for 2 hrs by cellular thermal shift assay; assay type: cell-based; details: filed as agonist
Chain of Stimulator of interferon genes protein (Homo sapiens), Q86WV6 [UNDEFINED MUTATION] (Q86WV6 whole entry, looked up, change not shown): as the sequence (Q86WV6 whole entry, looked up, stated change not applied) above

[14] = Cmax/C0 in Balb/c mouse at 25 mg/kg, iv measured by LC-MS/MS analysis; assay type: ADME, organism-based; set-up: route intravenous, dose 25 mg/kg; details: in vivo
[15] = Cmax/C0 in Balb/c mouse at 25 mg/kg, po measured by LC-MS/MS analysis; assay type: ADME, organism-based; set-up: route oral, dose 25 mg/kg; details: in vivo
[16] = Cmax/C0 in monkey at 2.5 mg/kg, iv measured by LC-MS/MS analysis; assay type: ADME, organism-based, Macaca mulatta; set-up: route intravenous, dose 2.5 mg/kg; details: rhesus monkey, in vivo
[17] = AUC in Balb/c mouse at 25 mg/kg, iv measured by LC-MS/MS analysis; assay type: ADME, organism-based; set-up: dose 25 mg/kg; details: in vivo
[18] = AUC in Balb/c mouse at 25 mg/kg, po measured by LC-MS/MS analysis; assay type: ADME, organism-based; set-up: dose 25 mg/kg; details: in vivo
[19] = AUC in monkey at 2.5 mg/kg, iv measured by LC-MS/MS analysis; assay type: ADME, organism-based, Macaca mulatta; set-up: dose 2.5 mg/kg; details: rhesus monkey, in vivo
[20] = Half life in Balb/c mouse at 25 mg/kg, iv measured by LC-MS/MS analysis; assay type: ADME, organism-based; details: in vivo
[21] = Half life in Balb/c mouse at 25 mg/kg, po measured by LC-MS/MS analysis; assay type: ADME, organism-based; details: in vivo
[22] = Half life in monkey at 2.5 mg/kg, iv measured by LC-MS/MS analysis; assay type: ADME, organism-based, Macaca mulatta; details: rhesus monkey, in vivo
[23] = Oral bioavailability in Balb/c mouse at 25 mg/kg measured by LC-MS/MS analysis; assay type: ADME, organism-based; details: in vivo
[24] = tested on: PBMC; test: Effects of compound on IL-6 production in cynomolgus monkey PBMC cells assessed as increase in IL-6 level at 10 uM and measured upto 24 hrs by ELISA; assay type: functional, cell-based; details: Macaca fascicularis
[25] = tested on: PBMC; test: Effects of compound on IFN-alpha production in cynomolgus monkey PBMC cells assessed as increase in […] level at 10 uM and measured upto 24 hrs by ELISA; assay type: functional, cell-based; details: Macaca fascicularis
[26] = tested on: PBMC; test: Effects of compound on IFN-beta production in cynomolgus monkey PBMC cells assessed as increase in […] level at 10 uM and measured upto 24 hrs by ELISA; assay type: functional, cell-based; details: Macaca fascicularis

Compound: Cc1cc(CN2C(=O)N(C)C(C)c3ccc(C(=O)NCc4c(F)cc(F)cc4F)cc32)on1 (stereo not drawn)
Activity [1]: 6%

Compound: CC1c2ccc(C(=O)NCc3c(F)cc(F)cc3F)cc2N(Cc2ccccc2F)C(=O)N1C (stereo not drawn)
Activity ([1]; filed as agonist): 54%

Compound: Cc1cc(CN2C(=O)N(C)C(C)c3ccc(C(=O)NCc4c(F)cc(F)cc4F)cc32)c(F)cn1 (stereo not drawn)
Activity ([1]; filed as agonist): 64%

Compound: CC1c2ccc(C(=O)NCc3c(F)cc(F)cc3F)cc2N(Cc2ccc(Cl)cc2F)C(=O)N1C (stereo not drawn)
Activity ([2]; filed as agonist): 65%

Compound: Cc1cc(CN2C(=O)N(C)C(C)c3ccc(C(=O)NCc4c(F)cc(F)cc4F)cc32)no1 (stereo not drawn)
Activity [1]: 6%

Compound: CC1c2ccc(C(=O)NCc3c(F)cc(F)cc3F)cc2N(Cc2cc(F)cc(F)c2)C(=O)N1C (racemic)
Activity [3]: 81%

Compound: Cc1cc(CN2C(=O)N(C)Cc3ccc(C(=O)NCc4c(F)cc(F)cc4F)cc32)on1
Activity [2]: 12%

EC50 [4]: 18 nM
EC50 [5]: 59 nM
EC50 [6]: 26 nM
EC50 [7]: 83 nM
EC50 [8]: 90 nM
EC50 [9]: 341 nM
EC50 [10]: 99 nM
Activity [13]: Active
Cmax [14]: 20100 ng/mL
Cmax [15]: 2480 ng/mL
Cmax [16]: 5220 ng/mL
AUC [17]: 10900 ng·h/mL
AUC [18]: 4850 ng·h/mL
AUC [19]: 8050 ng·h/mL
half-life [20]: 1.4 h
half-life [21]: 1.6 h
half-life [22]: 7.1 h
bioavailability [23]: 44%
Compound: C[C@H]1c2ccc(C(=O)NCc3c(F)cc(F)cc3F)cc2N(Cc2c(F)cccc2Cl)C(=O)N1C
Activity [11]: Active
Activity [12]: Active
Activity [24]: Active
Activity [25]: Active
Activity [26]: Active

Compound: CN1Cc2ccc(C(=O)NCc3ccccc3F)cc2N(Cc2c(F)cccc2Cl)C1=O
Activity [2]: 34%

Compound: CC1c2ccc(C(=O)NCc3c(F)cc(F)cc3F)cc2N(Cc2ccccc2)C(=O)N1C (racemic)
Activity ([1]; filed as agonist): 74%
Activity ([2]; filed as agonist): 73%
